Reference: patent US20230127047A1, “SELECTIVE GIP RECEPTOR AGONISTS COMPRISING A CHELATING MOIETY FOR IMAGING AND THERAPY PURPOSES” (ANTAROS MEDICAL AB, priority 2020, published 2023)
Where two headings read alike, the source gives them in different places. Where a SMILES comes first, the peptide text is derived from it. Where no end group is shown, it is not given here. [ ]: non-standard residue; d: D form. The star is where a group is joined. DO3A(CH2CH2SO2CH2CH2) = O=C(O)CN1CCN(CCS(=O)(=O)CC*)CCN(CC(=O)O)CCN(CC(=O)O)CC1; DOTA = O=C(O)CN1CCN(CC(=O)O)CCN(CC(=O)*)CCN(CC(=O)O)CC1; Aib = CC(C)(N)C(=O)O

How the values were obtained:
[1] = biological target: T1, glucagon receptor (hGCGR) (Homo sapiens, UniProt P47871); assay: cAMP response (HTRF) in PSC-HEK-293 cells expressing human glucagon receptor; format: cell-based
T1 construct: expressed in transfected cells
T1 sequence (P47871 26-477): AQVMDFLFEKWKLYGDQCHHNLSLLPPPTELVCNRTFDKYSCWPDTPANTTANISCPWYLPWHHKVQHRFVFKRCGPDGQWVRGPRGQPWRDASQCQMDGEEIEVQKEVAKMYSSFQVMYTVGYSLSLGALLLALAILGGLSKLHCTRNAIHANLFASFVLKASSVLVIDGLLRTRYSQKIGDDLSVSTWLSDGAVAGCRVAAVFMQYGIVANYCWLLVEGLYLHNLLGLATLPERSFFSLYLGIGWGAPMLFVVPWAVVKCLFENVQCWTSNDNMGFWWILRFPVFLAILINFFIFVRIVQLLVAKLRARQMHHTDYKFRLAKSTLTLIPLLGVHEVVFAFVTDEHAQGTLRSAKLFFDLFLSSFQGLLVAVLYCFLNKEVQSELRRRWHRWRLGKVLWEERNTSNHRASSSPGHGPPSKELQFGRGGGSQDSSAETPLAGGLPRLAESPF
Method: (§1) Each vial contained 1.8 ml cells. The vials were slowly frozen to −80° C. in isopropanol, and then transferred in liquid nitrogen for storage.
(§2) Prior to their use, frozen cells were thawed quickly at 37° C. and washed (5 min at 900 rpm) with 20 ml cell buffer (lx HBSS; 20 mM HEPES, with 0.1% BSA).
(§3) For measurement of cAMP generation, 5 μl cells (final 5000 cells/well) and 5 μl of test compound were added to a 384-well plate, followed by incubation for 30 min at room temperature.
(§4) The cAMP generated was determined using a kit from Cisbio Corp. based on HTRF (Homogenous Time Resolved Fluorescence). The cAMP assay was performed according to manufacturer's instructions (Cisbio).
(§5) cAMP content of cells was determined using a kit from Cisbio Corp. (cat. no. 62AM4PEC) based on HTRF (Homogenous Time Resolved Fluorescence). […] Medium was then removed and cells washed with PBS lacking calcium and magnesium, followed by proteinase treatment with accutase (Sigma-Aldrich cat. no. A6964). Detached cells were washed and resuspended in assay buffer (1×HBSS; 20 mM HEPES, 0.1% BSA, 2 mM IBMX) and cellular density determined. They were then diluted to 400000 cells/ml and 25 μl-aliquots dispensed into the wells of 96-well plates. For measurement, 25 μl of test compound in assay buffer was added to the wells, followed by incubation for 30 minutes at room temperature.

[2] = biological target: human GLP-1 receptor (hGLP-1R) (Homo sapiens, UniProt P43220); assay: cAMP response (HTRF) in PSC-HEK-293 cells expressing human GLP-1 receptor; format: cell-based
Chain of human GLP-1 receptor (hGLP-1R) (P43220 24-463): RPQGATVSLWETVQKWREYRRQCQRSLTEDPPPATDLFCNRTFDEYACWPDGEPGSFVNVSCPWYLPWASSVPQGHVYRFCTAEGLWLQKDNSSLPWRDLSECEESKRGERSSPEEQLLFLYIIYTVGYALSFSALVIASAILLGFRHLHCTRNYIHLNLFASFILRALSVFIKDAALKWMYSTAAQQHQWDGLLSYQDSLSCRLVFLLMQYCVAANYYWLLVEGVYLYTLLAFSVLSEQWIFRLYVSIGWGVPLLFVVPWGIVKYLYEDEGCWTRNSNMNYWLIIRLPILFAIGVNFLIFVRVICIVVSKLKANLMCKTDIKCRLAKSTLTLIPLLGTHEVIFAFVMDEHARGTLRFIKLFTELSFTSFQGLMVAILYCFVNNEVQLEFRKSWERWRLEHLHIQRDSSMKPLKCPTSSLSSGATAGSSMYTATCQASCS
Method: as §1, §2, §3, §4, §5

[3] = biological target: T2, human GIP receptor (hGIPR) (Homo sapiens, UniProt P48546); assay: cAMP response (HTRF) in PSC-HEK-293 cells expressing human GIP receptor; format: cell-based; conditions: from EC50 values of Table 5
T2 sequence (P48546 22-466): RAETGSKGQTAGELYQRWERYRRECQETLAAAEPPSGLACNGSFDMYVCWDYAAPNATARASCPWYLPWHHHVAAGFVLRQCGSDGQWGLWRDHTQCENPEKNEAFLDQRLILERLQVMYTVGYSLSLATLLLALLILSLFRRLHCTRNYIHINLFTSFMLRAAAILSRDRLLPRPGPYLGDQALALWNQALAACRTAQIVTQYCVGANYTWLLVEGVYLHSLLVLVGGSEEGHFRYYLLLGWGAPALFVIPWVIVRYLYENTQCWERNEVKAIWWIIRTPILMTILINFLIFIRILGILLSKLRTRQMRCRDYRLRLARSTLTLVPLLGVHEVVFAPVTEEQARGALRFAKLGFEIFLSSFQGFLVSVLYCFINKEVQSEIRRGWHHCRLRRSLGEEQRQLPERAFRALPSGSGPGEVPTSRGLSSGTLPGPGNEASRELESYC
Method: as §1, §2, §3, §4, §5

[4] = Plasma stability testing (radio-HPLC) in NHP plasma; format: in vitro ADME, cynomolgus monkey; conditions: for Intact peptide (%): NHP plasma, 37° C.

Row | Molecule | EC50 [1] [nM] | EC50 [2] [nM] | potency (ability to activate the human GIP receptor) compared to native GIP or GIP(1-30) [3] | also measured
1 | CC[C@H](C)[C@H](NC(=O)[C@H](CO)NC(=O)[C@H](Cc1ccc(O)cc1)NC(=O)[C@H](CC(=O)O)NC(=O)[C@H](CO)NC(=O)[C@@H](NC(=O)[C@H](Cc1ccccc1)NC(=O)[C@@H](NC(=O)CNC(=O)[C@H](CCC(=O)O)NC(=O)[C@H](C)NC(=O)[C@@H](N)Cc1ccc(O)cc1)[C@@H](C)O)[C@@H](C)CC)C(=O)N[C@@H](C)C(=O)N[C@@H](CCSC)C(=O)N[C@@H](CC(=O)O)C(=O)N[C@@H](CCCCN)C(=O)N[C@H](C(=O)N[C@@H](Cc1c[nH]cn1)C(=O)N[C@@H](CCC(N)=O)C(=O)N[C@@H](CCC(N)=O)C(=O)N[C@@H](CC(=O)O)C(=O)N[C@@H](Cc1ccccc1)C(=O)N[C@H](C(=O)N[C@@H](CC(N)=O)C(=O)N[C@@H](Cc1c[nH]c2ccccc12)C(=O)N[C@@H](CC(C)C)C(=O)N[C@@H](CC(C)C)C(=O)N[C@@H](C)C(=O)N[C@@H](CCC(N)=O)C(=O)N[C@@H](CCCCN)C(=O)NCC(=O)N[C@@H](CCCCN)C(=O)N[C@@H](CCCCN)C(=O)N[C@@H](CC(N)=O)C(=O)N[C@@H](CC(=O)O)C(=O)N[C@@H](Cc1c[nH]c2ccccc12)C(=O)N[C@@H](CCCCN)C(=O)N[C@@H](Cc1c[nH]cn1)C(=O)N[C@@H](CC(N)=O)C(=O)N[C@H](C(=O)N[C@H](C(=O)N[C@@H](CCC(N)=O)C(=O)O)[C@@H](C)O)[C@@H](C)CC)C(C)C)[C@@H](C)CC [SEQ ID NO: 1, YAEGTFISDYSIAMDKIHQQDFVNWLLAQKGKKNDWKHNITQ-OH] | > 10 |  |  | EC50 ([1]; read-out: EC50 hGCGR, 384-well format): > 10 nM
2 | CC[C@H](C)[C@H](NC(=O)[C@H](CO)NC(=O)[C@H](Cc1ccc(O)cc1)NC(=O)[C@H](CC(=O)O)NC(=O)[C@H](CO)NC(=O)[C@@H](NC(=O)[C@H](Cc1ccccc1)NC(=O)[C@@H](NC(=O)CNC(=O)[C@H](CCC(=O)O)NC(=O)[C@H](C)NC(=O)[C@@H](N)Cc1ccc(O)cc1)[C@@H](C)O)[C@@H](C)CC)C(=O)N[C@@H](C)C(=O)N[C@@H](CCSC)C(=O)N[C@@H](CC(=O)O)C(=O)N[C@@H](CCCCN)C(=O)N[C@H](C(=O)N[C@@H](Cc1c[nH]cn1)C(=O)N[C@@H](CCC(N)=O)C(=O)N[C@@H](CCC(N)=O)C(=O)N[C@@H](CC(=O)O)C(=O)N[C@@H](Cc1ccccc1)C(=O)N[C@H](C(=O)N[C@@H](CC(N)=O)C(=O)N[C@@H](Cc1c[nH]c2ccccc12)C(=O)N[C@@H](CC(C)C)C(=O)N[C@@H](CC(C)C)C(=O)N[C@@H](C)C(=O)N[C@@H](CCC(N)=O)C(=O)N[C@@H](CCCCN)C(N)=O)C(C)C)[C@@H](C)CC [SEQ ID NO: 2, YAEGTFISDYSIAMDKIHQQDFVNWLLAQK-NH2] | > 10 | > 10 |  | 
3 | CC[C@H](C)[C@H](NC(=O)[C@H](CO)NC(=O)[C@H](CC(C)C)NC(=O)[C@H](CC(=O)O)NC(=O)[C@H](CO)NC(=O)[C@@H](NC(=O)[C@H](Cc1ccccc1)NC(=O)[C@@H](NC(=O)CNC(=O)[C@H](CCC(=O)O)NC(=O)C(C)(C)NC(=O)[C@@H](N)Cc1ccc(O)cc1)[C@@H](C)O)[C@@H](C)CC)C(=O)N[C@@H](C)C(=O)N[C@@H](CC(C)C)C(=O)N[C@@H](CC(=O)O)C(=O)N[C@@H](CCCNC(=N)N)C(=O)N[C@H](C(=O)N[C@@H](Cc1c[nH]cn1)C(=O)N[C@@H](CCC(N)=O)C(=O)N[C@@H](CCC(=O)O)C(=O)N[C@@H](CCC(=O)O)C(=O)N[C@@H](Cc1ccccc1)C(=O)N[C@H](C(=O)N[C@@H](CCC(N)=O)C(=O)N[C@@H](Cc1c[nH]c2ccccc12)C(=O)N[C@@H](CC(C)C)C(=O)N[C@@H](CC(C)C)C(=O)N[C@@H](C)C(=O)NCC(=O)NCC(=O)N[C@@H](CSCCS(=O)(=O)CCN1CCN(CC(=O)O)CCN(CC(=O)O)CCN(CC(=O)O)CC1)C(N)=O)[C@@H](C)CC)[C@@H](C)CC [SEQ ID NO: 5, Y-Aib-EGTFISDLSIALDRIHQEEFIQWLLAGGC(VS-DO3A)-NH2] (H-Y[Aib]EGTFISDLSIALDRIHQEEFIQWLLAGGC(DO3A(CH2CH2SO2CH2CH2))-NH2; N-terminus assumed) | > 10 | > 10 | lower potency | 
4 | SEQ ID NOs: 3 (Y[Aib]EGTFISDLSIALDRIHQEEFIEWLLAGGK(DOTA)-NH2) |  |  | lower potency | 
5 | Y-Aib-EGTFISDLSIALDRIHQEEFIEWLLAGGK(DOTA(Ga))-NH2 (Y[Aib]EGTFISDLSIALDRIHQEEFIEWLLAGGK(DOTA)-NH2; also: Ga (68Ga) complexed in DOTA on Lys31) [SEQ ID NO: 4] |  |  | lower potency | Intact peptide (%) ([4]; 0 min): 99.5%; Intact peptide (%) ([4]; 15 min): 98.65%; Intact peptide (%) ([4]; 45 min): 96.31%; Intact peptide (%) ([4]; 90 min): 92.98%; radioactive signal arising from intact peptide ([4]; plasma from NHP, after 90 minutes incubation): > 92%
